Data taken from US6506339B1, “Method of sterilization” (Biomedical Design, Inc., priority 1997, dated 2003).

Tests used:
Assay type in all cases: cell-based
[1] = system: Mycobacterium Chelonae ATCC 35752; experiment: Sterilization test, Mycobacterium chelonae in sterile cups at room temperature (Example 1); details: EDC plus Sulfo-NHS, 20% isopropyl alcohol
Procedure: Porcine aortic roots are fixed by cross-linking according to the method described in U.S. Pat. No. 5,447,536. After fixation, the valves are stored in 10 mM HEPES, 0.85% NaCl, 20% isopropyl alcohol, pH 7.4, at 4° C. The sterility tests described in the following examples are in most cases conducted in the presence of bioprosthetic heart valve tissue; when such tissue is not present, the solutions are simply filtered through a 0.45 micron filter attached to a funnel (filter funnel). The filters are then rinsed with peptone water to eliminate residual chemicals on the membrane that may prevent growth of the organisms tested. Such membrane filters are then incubated on TSA plates at about 32° to 33° C., e.g. 32.5° C. When an aortic valve is inoculated with microorganisms for test purposes and then submitted to sterilization, the solution is filtered as described above. The aortic valve tissue is then washed for 20 minutes in a reciprocating shaker in the presence of peptone water containing Tween 80 in order to extract all indigenous spores or microorganisms from the tissue. This solution is filtered and then incubated as described above. […] Resistance to calcification is assessed by subdermal implantation of sterilized leaflets and aortic wall coupons in young rats, as also described in the '536 U.S. patent. […]

[2] = system: spores of Bacillus subtilis; experiment: Two sequential spore inoculations on cross-linked porcine valves (Example 5); details: 25 mM EDC, 20% isopropyl alcohol, 40° C.
Procedure: An experiment was also designed to test the bactericidal activity of the EDC treatment using two sequential inoculations of at least 1×10^6 spores of Bacillus subtilis per sample. In the first step, 1.43×10^6 spores (Log10=6.2) were inoculated in triplicate for 10 minutes onto 45 porcine valves which had been cross-linked using a method as described in the above-mentioned patent and patent application. Solutions of 25 mM EDC in 10 mM HEPES, 0.85% NaCl, 20% isopropyl alcohol, at pH 6.5 were poured into the cups containing the valve samples. After 2, 4, 6, and 8 hours of incubation at 40° C., the total surviving spores from 12 samples (solution plus tissue) were counted. After 8 hours of incubation, an additional 1.2×10^6 (Log10=6.1) spores were added to the remaining 33 samples. Summarizing, these remaining 33 samples were thus inoculated at t=0 with 1.43×10^6 spores and at t=8 with 1.2×10^6 spores. After various durations of incubation (see Table C for details), the surviving spores in solution and on the valve tissue were removed by filtering and incubated on TSA plates as described above. The positive and negative controls were determined to be valid for the test.

[3] = system: Mycobacterium Chelonae ATCC 35752; experiment: Sterilization test, Mycobacterium chelonae in sterile cups at room temperature (Example 1); design: key: (+) Indicates growth; (−) indicates no growth; details: 10 mM EDC+1 mM Sulfo-NHS
Procedure: Porcine aortic roots are fixed by cross-linking according to the method described in U.S. Pat. No. 5,447,536. After fixation, the valves are stored in 10 mM HEPES, 0.85% NaCl, 20% isopropyl alcohol, pH 7.4, at 4° C. The sterility tests described in the following examples are in most cases conducted in the presence of bioprosthetic heart valve tissue; when such tissue is not present, the solutions are simply filtered through a 0.45 micron filter attached to a funnel (filter funnel). The filters are then rinsed with peptone water to eliminate residual chemicals on the membrane that may prevent growth of the organisms tested. Such membrane filters are then incubated on TSA plates at about 32° to 33° C., e.g. 32.5° C. When an aortic valve is inoculated with microorganisms for test purposes and then submitted to sterilization, the solution is filtered as described above. The aortic valve tissue is then washed for 20 minutes in a reciprocating shaker in the presence of peptone water containing Tween 80 in order to extract all indigenous spores or microorganisms from the tissue. This solution is filtered and then incubated as described above. All microbiological testing is performed in a biological laminar flow hood to prevent contamination. The shrinkage temperature and the proteolytic (collagenase and protease) degradation tests are conducted as previously described in the '536 patent. Resistance to calcification is assessed by subdermal implantation of sterilized leaflets and aortic wall coupons in young rats, as also described in the '536 U.S. patent.
Mycobacterium Chelonae ATCC 35752 (˜10^5) was inoculated in sterile cups. A 10 mM HEPES, 0.85% NaCl, pH 6.5 solution containing 10 mM EDC and 1 mM Sulfo-NHS in the presence or absence of 20% isopropyl alcohol was maintained in contact with the bacteria in the cups for various periods of time (treatment duration). The cups were maintained at room temperature, and the solutions were then filtered. The filters were then incubated at about 32-33° C. for up to 6 weeks (incubation duration) using either Trypticase Soy Agar (TSA) plates or Trypticase Soy Broth (TSB). All inoculations were done in duplicate.

[4] = 28 to 56 hours, rechallenge with 1.2×10^6 spores at 8 hours, mean of three samples
[5] = 2 hours, inoculum 1.43×10^6, mean of three samples
[6] = 4 hours, inoculum 1.43×10^6, mean of three samples
[7] = 6 hours, inoculum 1.43×10^6, mean of three samples
[8] = 8 hours, inoculum 1.43×10^6, mean of three samples
[9] = 11 hours, rechallenge with 1.2×10^6 spores at 8 hours, mean of three samples
[10] = 14 hours, rechallenge with 1.2×10^6 spores at 8 hours, mean of three samples
[11] = 20 hours, rechallenge with 1.2×10^6 spores at 8 hours, mean of three samples
[12] = 24 hours, rechallenge with 1.2×10^6 spores at 8 hours, mean of three samples

CCN=C=NCCCN(C)C.Cl [EDC, 1-ethyl-3(3-dimethylaminopropyl)carbodiimide hydrochloride]
sterilization treatment time that kills all Mycobacterium chelonae [1]: ≤ 12 h
LOG REDUCTION [2, 4]: 6.1
Total Survivors # CFUs [2, 4]: 0 CFUs
Total Survivors Log 10 [2, 4]: 0 Log 10
LOG REDUCTION [2, 5]: 4.5
Total Survivors # CFUs [2, 5]: 58 CFUs
Total Survivors Log 10 [2, 5]: 1.7 Log 10
LOG REDUCTION [2, 6]: 5.6
Total Survivors # CFUs [2, 6]: 4 CFUs
Total Survivors Log 10 [2, 6]: 0.5 Log 10
LOG REDUCTION [2, 7]: 6.2
Total Survivors # CFUs [2, 7]: 0 CFUs
Total Survivors Log 10 [2, 7]: 0 Log 10
LOG REDUCTION [2, 8]: 6.2
Total Survivors # CFUs [2, 8]: 0 CFUs
Total Survivors Log 10 [2, 8]: 0 Log 10
LOG REDUCTION [2, 9]: 3.7
Total Survivors # CFUs [2, 9]: 300 CFUs
Total Survivors Log 10 [2, 9]: 2.5 Log 10
LOG REDUCTION [2, 10]: 6.1
Total Survivors # CFUs [2, 10]: 0 CFUs
Total Survivors Log 10 [2, 10]: 0 Log 10
LOG REDUCTION [2, 11]: 6.1
Total Survivors # CFUs [2, 11]: 0 CFUs
Total Survivors Log 10 [2, 11]: 0 Log 10
LOG REDUCTION [2, 12]: 6.1
Total Survivors # CFUs [2, 12]: 0 CFUs
Total Survivors Log 10 [2, 12]: 0 Log 10
growth ([3]; 20% isopropyl alcohol, treatment 0 hour, incubation 3 Week, TSA): +,+
growth ([3]; 20% isopropyl alcohol, treatment 0 hour, incubation 3 Week, TSB): +,+
growth ([3]; 20% isopropyl alcohol, treatment 0 hour, incubation 4 Week, TSA): +,+
growth ([3]; 20% isopropyl alcohol, treatment 0 hour, incubation 4 Week, TSB): +,+
growth ([3]; 20% isopropyl alcohol, treatment 0 hour, incubation 6 Week, TSA): +,+
growth ([3]; 20% isopropyl alcohol, treatment 0 hour, incubation 6 Week, TSB): +,+
growth ([3]; no isopropyl alcohol, treatment 0 hour, incubation 1 Day, TSA): +,+
growth ([3]; no isopropyl alcohol, treatment 0 hour, incubation 1 Day, TSB): +,+
growth ([3]; no isopropyl alcohol, treatment 0 hour, incubation 1 Week, TSA): +,+
growth ([3]; no isopropyl alcohol, treatment 0 hour, incubation 1 Week, TSB): +,+
growth ([3]; no isopropyl alcohol, treatment 0 hour, incubation 3 Week, TSA): +,+
growth ([3]; no isopropyl alcohol, treatment 0 hour, incubation 3 Week, TSB): +,+
growth ([3]; no isopropyl alcohol, treatment 0 hour, incubation 4 Week, TSA): +,+
growth ([3]; no isopropyl alcohol, treatment 0 hour, incubation 4 Week, TSB): +,+
growth ([3]; no isopropyl alcohol, treatment 0 hour, incubation 6 Week, TSA): +,+
growth ([3]; no isopropyl alcohol, treatment 0 hour, incubation 6 Week, TSB): +,+
growth ([3]; no isopropyl alcohol, treatment 12 hours, incubation 1 Day, TSA): +,+
growth ([3]; no isopropyl alcohol, treatment 12 hours, incubation 1 Day, TSB): +,+
growth ([3]; no isopropyl alcohol, treatment 12 hours, incubation 1 Week, TSA): +,+
growth ([3]; no isopropyl alcohol, treatment 12 hours, incubation 1 Week, TSB): +,+
growth ([3]; no isopropyl alcohol, treatment 12 hours, incubation 3 Week, TSA): +,+
growth ([3]; no isopropyl alcohol, treatment 12 hours, incubation 3 Week, TSB): +,+
growth ([3]; no isopropyl alcohol, treatment 12 hours, incubation 4 Week, TSA): +,+
growth ([3]; no isopropyl alcohol, treatment 12 hours, incubation 4 Week, TSB): +,+
growth ([3]; no isopropyl alcohol, treatment 12 hours, incubation 6 Week, TSA): +,+
growth ([3]; no isopropyl alcohol, treatment 12 hours, incubation 6 Week, TSB): +,+
growth ([3]; no isopropyl alcohol, treatment 24 hours, incubation 1 Day, TSA): −,−
growth ([3]; no isopropyl alcohol, treatment 24 hours, incubation 1 Day, TSB): −,−
growth ([3]; no isopropyl alcohol, treatment 24 hours, incubation 1 Week, TSA): +,+
growth ([3]; no isopropyl alcohol, treatment 24 hours, incubation 1 Week, TSB): +,+
growth ([3]; no isopropyl alcohol, treatment 24 hours, incubation 3 Week, TSA): +,+
growth ([3]; no isopropyl alcohol, treatment 24 hours, incubation 3 Week, TSB): +,+
growth ([3]; no isopropyl alcohol, treatment 24 hours, incubation 4 Week, TSA): +,+
growth ([3]; no isopropyl alcohol, treatment 24 hours, incubation 4 Week, TSB): +,+
growth ([3]; no isopropyl alcohol, treatment 24 hours, incubation 6 Week, TSA): +,+
growth ([3]; no isopropyl alcohol, treatment 24 hours, incubation 6 Week, TSB): +,+
growth ([3]; no isopropyl alcohol, treatment 48 hours, incubation 1 Day, TSA): −,−
growth ([3]; no isopropyl alcohol, treatment 48 hours, incubation 1 Day, TSB): −,−
growth ([3]; no isopropyl alcohol, treatment 48 hours, incubation 1 Week, TSA): −,−
growth ([3]; no isopropyl alcohol, treatment 48 hours, incubation 1 Week, TSB): −,−
growth ([3]; no isopropyl alcohol, treatment 48 hours, incubation 3 Week, TSA): −,−
growth ([3]; no isopropyl alcohol, treatment 48 hours, incubation 3 Week, TSB): −,−
growth ([3]; no isopropyl alcohol, treatment 48 hours, incubation 4 Week, TSA): −
growth ([3]; no isopropyl alcohol, treatment 48 hours, incubation 4 Week, TSB): +
growth ([3]; no isopropyl alcohol, treatment 48 hours, incubation 6 Week, TSA): −
growth ([3]; no isopropyl alcohol, treatment 48 hours, incubation 6 Week, TSB): +
growth ([3]; no isopropyl alcohol, treatment 72 hours, incubation 1 Day, TSA): −,−
growth ([3]; no isopropyl alcohol, treatment 72 hours, incubation 1 Day, TSB): −,−
growth ([3]; no isopropyl alcohol, treatment 72 hours, incubation 1 Week, TSA): −,−
growth ([3]; no isopropyl alcohol, treatment 72 hours, incubation 1 Week, TSB): −,−
growth ([3]; no isopropyl alcohol, treatment 72 hours, incubation 3 Week, TSA): −,−
growth ([3]; no isopropyl alcohol, treatment 72 hours, incubation 3 Week, TSB): −,−
growth ([3]; no isopropyl alcohol, treatment 72 hours, incubation 4 Week, TSA): −,−
growth ([3]; no isopropyl alcohol, treatment 72 hours, incubation 4 Week, TSB): −,−
growth ([3]; no isopropyl alcohol, treatment 72 hours, incubation 6 Week, TSA): −
growth ([3]; no isopropyl alcohol, treatment 72 hours, incubation 6 Week, TSB): +
